From patent publication US9415039B2, “Disubstituted 3,4-diamino-3-cyclobutene-1,2-dione compounds for use in the treatment of chemokine-mediated diseases” (GALDERMA RESEARCH & DEVELOPMENT, priority 2011, dated 2016)

What was measured:
CXCR1 receptor = biological target: T1, CXCR1 receptor (Homo sapiens, UniProt P25024); assay: β-arrestin 2 recruitment test after CXCL8 activation, U2OS hCXCR1 β-arrestin cells; assay type: cell-based; conditions: stimulation with CXCL8 (10 nM), read-out: CXCR1 (nM), IC50 = half inhibition concentration
T1 construct: β-galactosidase enzyme-complementation fragment (PathHunter system); host or cells: U2OS
T1 sequence (P25024 1-350): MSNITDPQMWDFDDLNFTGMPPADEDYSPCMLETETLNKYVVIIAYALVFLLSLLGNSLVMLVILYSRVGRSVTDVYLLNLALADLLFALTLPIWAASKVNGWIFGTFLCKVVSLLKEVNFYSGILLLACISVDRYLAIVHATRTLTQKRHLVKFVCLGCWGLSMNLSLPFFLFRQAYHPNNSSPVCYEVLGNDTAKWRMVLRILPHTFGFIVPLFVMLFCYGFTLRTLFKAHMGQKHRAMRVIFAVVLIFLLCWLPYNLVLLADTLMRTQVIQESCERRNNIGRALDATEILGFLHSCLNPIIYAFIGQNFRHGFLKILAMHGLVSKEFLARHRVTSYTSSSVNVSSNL
Method: (§1) The in vitro affinity of the compounds of the present invention for the CXCR1 and CXCR2 receptors was determined on a functional test of the β-arrestin recruitment after receptor activation type.
(§2) In order to evaluate the direct interaction of the CXCR2 or CXCR1 receptor with β-arrestin 2, a β-arrestin 2 recruitment test for CXCR2 or CXCR1 based on β-galactosidase enzyme complementation (Olson K R, Eglen R M. Beta galactosidase complementation: a cell-based luminescent assay platform for drug discovery. Assay Drug Dev Technol. 2007 February; 5(1); 137-44), as established by DiscoveRx Corporation was used. The stimulation of these two cell lines with CXCL8 (10 nM) induces β-arrestin 2 recruitment, as indicated by a significant increase in the induction factor. […]
(§3) “PathHunter HEK293-CXCR2” or “U2OS hCXCR1 β-arrestin” cells (DiscoveRx Corporation) were seeded overnight at 10 000 cells/well (384-well format) in 20 μl of Opti MEM I medium. […] After incubation for 60 min at ambient temperature, the […] during the β-arrestin-CXCR2 interaction was measured for 0.3 s in an Envision 2102 Multilabel Reader (PerkinElmer Life and Analytical Sciences). The data were analyzed by means of a non-linear curve procedure using the XLFit4 exploitation software (IDBS) and the IC50 values were determined.

CXCR2 receptor = biological target: T2, CXCR2 receptor (Homo sapiens, UniProt P25025); assay: β-arrestin 2 recruitment test after CXCL8 activation, PathHunter HEK293-CXCR2 cells; assay type: cell-based; conditions: stimulation with CXCL8 (10 nM), read-out: CXCR2 (nM), IC50 = half inhibition concentration
T2 construct: β-galactosidase enzyme-complementation fragment (PathHunter system); host or cells: HEK293
T2 sequence (P25025 1-360): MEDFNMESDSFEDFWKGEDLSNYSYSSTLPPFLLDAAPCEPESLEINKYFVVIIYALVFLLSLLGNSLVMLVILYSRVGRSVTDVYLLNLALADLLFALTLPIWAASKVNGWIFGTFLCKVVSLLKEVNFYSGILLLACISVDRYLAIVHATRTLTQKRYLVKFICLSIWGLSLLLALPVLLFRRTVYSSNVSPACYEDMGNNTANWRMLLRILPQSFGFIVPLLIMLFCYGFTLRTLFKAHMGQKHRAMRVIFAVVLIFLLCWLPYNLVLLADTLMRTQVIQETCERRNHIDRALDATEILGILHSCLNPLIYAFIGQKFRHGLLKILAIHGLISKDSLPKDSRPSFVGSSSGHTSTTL
Method: as §1, §2, §3

| melting point | IC50 (CXCR1 receptor) | IC50 (CXCR2 receptor) | SMILES |
| --- | --- | --- | --- |
| 137 to 140 °C | 5440 nM | 212 nM | Cc1ccc(C(Nc2c(Nc3cccc(C(=O)N(C)C)c3O)c(=O)c2=O)C2CCOCC2)o1 (stereo not drawn) [Example 1, 2-hydroxy-N,N-dimethyl-3-(2-{[(5-methylfuran-2-yl)-(tetrahydropyran-4-yl)methyl]amino}-3,4-dioxocyclobut-1-enylamino)benzamide] |
| 173 to 175 °C | 3390 nM | 111 nM | Cc1ccc(C(Nc2c(Nc3cccc(C(=O)N(C)C)c3O)c(=O)c2=O)C2CCSCC2)o1 (stereo not drawn) [Example 2, 2-hydroxy-N,N-dimethyl-3-(2-{[(5-methylfuran-2-yl)-(tetrahydrothiopyran-4-yl)methyl]amino}-3,4-dioxocyclobut-1-enylamino)benzamide] |
